Results taken from patent US6919377B2, “Cyclohexylamine derivative as subtype selective NMDA receptor antagonists” (Warner Lambert Company LLC, priority 2000, dated 2005).
Where a name gives a salt, the structure may show the parent alone. Read-outs that look alike come from different tables or passages of the source.

Experiments:
[1] = target: NR1a/NR2B (Rattus norvegicus, UniProt P35439+Q00960); assay: Electrophysiological assay at NMDA receptor subunits expressed in Xenopus oocytes (two-electrode voltage clamp); assay type: cell-based
Method: The clones were transformed into appropriate host bacteria and plasmid preparations were made with conventional DNA purification techniques. A sample of each clone was linearized by restriction enzyme digestion […] was synthesized with T3 RNA polymerase. The cRNA was diluted to 400 ng/μL and stored in 1 μL aliquots at −80° C. until injection.
The Xenopus Oocyte Expression System. […] Follicle-enclosed oocytes were micro-injected with 1:1 mixtures of NR1A:NR2A, 2B or 2C.; injecting 1 to 10 ng of RNA encoding each receptor subunit. NR1A encoding RNA was injected alone at ˜20 ng. Oocytes were stored in Barth's medium containing (in mM): NaCl, 88; KCl, 1; CaCl2, 0.41; Ca (NO3)2, 0.33; MgSO4, 0.82; NaHCO3, 2.4; HEPES 5, pH 7.4, with 0.11 mg/ml gentamicin sulphate. While oocytes were still surrounded by enveloping ovarian tissues, the Barth's medium was supplemented with 0.1% bovine serum.
Drugs were applied by bath perfusion. Using oocytes expressing different subunit combinations of NMDA receptor, NMDA currents were activated by co-application of glutamate (100 μM) and glycine (1-100 μM). Inhibitory potency of the novel antagonists was assessed on responses elicited by fixed concentrations of glutamate and glycine, by measuring reductions in current induced by progressively increasing concentrations of antagonist.
Concentration-inhibition curves were fit with Equation 1. […] For incomplete curves analysis by fitting was unreliable and IC50 values were calculated by simple regression over linear portions of the curves (Origin: Microcal Software).

[2] = test system: Alpha 1; assay: Alpha 1 (Table 4, no method given); assay type: binding; conditions: read-out: Alpha 1 cocn IC50
[3] = target: D2 (Homo sapiens, UniProt P14416); assay: D2 Raclopride (Table 4, no method given); assay type: binding
[4] = Table 2, head names no subunit, electrophysiological assay results, read-out: IC50
[5] = Table 4, cloned rat NMDA receptor subunits in Xenopus oocytes, read-out: NR1a/NR2B Oocyte IC50
[6] = Table 1, cloned rat NMDA receptor subunits in Xenopus oocytes, currents activated by glutamate (100 μM) and glycine (1-100 μM), read-out: NR1a/NR2B Oocyte IC50

D2, sequence (P14416 whole entry): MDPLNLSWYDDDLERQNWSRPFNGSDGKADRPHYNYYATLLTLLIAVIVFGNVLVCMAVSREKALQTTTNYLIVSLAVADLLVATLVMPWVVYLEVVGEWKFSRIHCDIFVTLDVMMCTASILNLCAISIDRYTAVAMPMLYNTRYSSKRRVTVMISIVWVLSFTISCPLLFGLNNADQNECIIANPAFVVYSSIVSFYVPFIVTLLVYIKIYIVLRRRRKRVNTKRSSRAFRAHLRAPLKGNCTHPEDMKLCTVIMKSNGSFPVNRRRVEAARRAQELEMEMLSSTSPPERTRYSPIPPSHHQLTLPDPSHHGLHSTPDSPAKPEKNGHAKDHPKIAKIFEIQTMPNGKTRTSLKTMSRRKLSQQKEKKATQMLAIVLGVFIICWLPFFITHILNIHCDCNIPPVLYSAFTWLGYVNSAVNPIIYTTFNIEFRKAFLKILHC
NR1a/NR2B, sequence (Q00960 27-1482, other chains not shown): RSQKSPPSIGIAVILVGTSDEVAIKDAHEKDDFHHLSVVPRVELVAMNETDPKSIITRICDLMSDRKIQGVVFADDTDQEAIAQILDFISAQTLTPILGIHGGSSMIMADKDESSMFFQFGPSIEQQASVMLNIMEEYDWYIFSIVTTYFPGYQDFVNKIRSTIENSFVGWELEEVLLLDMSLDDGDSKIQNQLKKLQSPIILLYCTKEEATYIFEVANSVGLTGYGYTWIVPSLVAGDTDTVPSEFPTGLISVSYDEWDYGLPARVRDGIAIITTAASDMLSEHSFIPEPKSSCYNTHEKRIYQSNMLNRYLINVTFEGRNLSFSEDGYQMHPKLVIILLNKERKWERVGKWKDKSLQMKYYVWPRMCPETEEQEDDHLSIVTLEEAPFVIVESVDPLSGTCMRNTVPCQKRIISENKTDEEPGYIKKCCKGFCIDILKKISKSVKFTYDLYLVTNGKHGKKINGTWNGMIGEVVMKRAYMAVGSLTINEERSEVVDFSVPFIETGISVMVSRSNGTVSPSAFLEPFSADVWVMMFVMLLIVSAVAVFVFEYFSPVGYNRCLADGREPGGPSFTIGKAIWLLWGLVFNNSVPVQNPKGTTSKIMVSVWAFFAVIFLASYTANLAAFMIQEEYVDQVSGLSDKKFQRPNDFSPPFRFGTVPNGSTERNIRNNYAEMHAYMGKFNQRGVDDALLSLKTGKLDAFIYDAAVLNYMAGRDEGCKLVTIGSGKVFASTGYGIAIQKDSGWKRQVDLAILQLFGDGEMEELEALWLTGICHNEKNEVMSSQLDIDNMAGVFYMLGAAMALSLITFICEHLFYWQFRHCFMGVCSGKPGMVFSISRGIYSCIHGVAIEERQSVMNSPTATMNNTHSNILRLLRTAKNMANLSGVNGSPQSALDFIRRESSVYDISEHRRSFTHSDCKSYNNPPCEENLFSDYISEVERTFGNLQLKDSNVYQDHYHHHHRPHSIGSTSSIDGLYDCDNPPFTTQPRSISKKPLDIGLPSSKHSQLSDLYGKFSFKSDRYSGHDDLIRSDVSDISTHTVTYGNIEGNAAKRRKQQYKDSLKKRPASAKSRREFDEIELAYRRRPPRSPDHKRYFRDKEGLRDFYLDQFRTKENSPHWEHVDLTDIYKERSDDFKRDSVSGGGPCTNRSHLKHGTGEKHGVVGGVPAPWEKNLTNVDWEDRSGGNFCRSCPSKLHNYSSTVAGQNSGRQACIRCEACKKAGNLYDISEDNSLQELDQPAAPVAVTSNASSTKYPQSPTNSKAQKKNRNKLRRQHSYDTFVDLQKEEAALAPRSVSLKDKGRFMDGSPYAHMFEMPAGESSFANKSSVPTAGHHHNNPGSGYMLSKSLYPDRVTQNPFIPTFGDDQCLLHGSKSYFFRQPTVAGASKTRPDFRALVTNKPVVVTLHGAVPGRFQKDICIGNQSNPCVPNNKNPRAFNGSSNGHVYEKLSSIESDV

SMILES | melting point | IC50 [1, 4] | also measured
C[C@H](CCc1ccccc1)N[C@H]1CC[C@H](c2ccc(O)cc2)CC1 [Example 6c, trans-4-[4-((R)-1-Methyl-3-phenylpropylamino)cyclohexyl]phenol] | 152 to 160 °C | 60 nM | –
O=C(CCc1ccccc1)N[C@H]1CC[C@H](c2ccc(O)cc2)CC1 [Example 21, Trans-N-[4-(4-Hydroxyphenyl)cyclohexyl]-3-phenylpropionamide] | 201 to 206 °C | 70 nM | –
COC(=O)N(CCCc1ccccc1)[C@H]1CC[C@H](c2ccc(O)cc2)CC1 [Example 18, Trans-N-[4-(4-Hydroxyphenyl)cyclohexyl]-N-(3-phenylpropyl)carbamic acid methyl ester] | 128 to 133 °C | 50 nM | –
COc1ccc(CCN[C@H]2CC[C@H](c3ccc(O)cc3)CC2)cc1 [Example 8b, trans-4-{4-[2-(4-Methoxyphenyl)ethylamino]cyclohexyl}phenol] | – | – | IC50 [2]: 5100 nM; IC50 [1, 5]: 240 nM; IC50 [3]: 1900 nM
COc1ccc(CCCN[C@H]2CC[C@H](c3ccc(O)cc3)CC2)cc1 [Example 28, Trans-4-{4-[3-(4-methoxyphenyl)propylamino]cyclohexyl}phenol] | – | – | IC50 [2]: 2300 nM; IC50 [1, 5]: 70 nM; IC50 [3]: 2970 nM
Oc1ccc([C@H]2CC[C@@H](NCCCCc3ccccc3)CC2)cc1 [Example 1a, cis-4-[4-(4-Phenylbutylamino)cyclohexyl]phenol] | 128 to 131 °C | – | IC50 [1, 6]: 900 nM
COc1ccc(CCN[C@H]2CC[C@@H](c3ccc(O)cc3)CC2)cc1 [Example 8a, cis-4-{4-[2-(4-Methoxyphenyl)ethylamino]cyclohexyl}phenol] | – | – | IC50 [2]: 9200 nM; IC50 [1, 5]: 2400 nM; IC50 [3]: 5000 nM
C[C@@H](Cc1ccccc1)N[C@H]1CC[C@H](c2ccc(O)cc2)CC1 [Example 13, trans-4-[4-((S)-1-Methyl-2-phenylethylamino)cyclohexyl]phenol] | 183 to 187 °C | 16000 nM | –
CC(=O)N(CCCc1ccccc1)[C@H]1CC[C@H](c2ccc(O)cc2)CC1 [Example 17, trans-N-[4-(4-Hydroxyphenyl)cyclohexyl]-N-(3-phenylpropyl)acetamide] | 175 to 180 °C | 4400 nM | –
Oc1ccc([C@H]2CC[C@H](NCCNc3ccccc3)CC2)cc1 (as salt: maleate) [Example 25, Trans-4-[4-(2-phenylaminoethylamino)cyclohexyl]phenol] | 180 to 184 °C | – | –
CC(=O)N(Cc1ccccc1)[C@H]1CC[C@H](c2ccc(O)cc2)CC1 [Example 16, trans-N-Benzyl-N-[4-(4-hydroxyphenyl)cyclohexyl]acetamide] | 227 to 235 °C | 200000 nM | –
COc1ccc(CCCN[C@H]2CC[C@H](c3ccc(O)cc3)CC2)cc1 (as salt: HCl) [Example 28, Trans-4-{4-[3-(4-methoxyphenyl)propylamino]cyclohexyl}phenol] | 235 to 241 °C | – | –
Oc1ccc([C@H]2CC[C@@H](NCCc3ccccc3)CC2)cc1 [Example 3a, cis-4-(4-Phenethylaminocyclohexyl)phenol] | 155 to 160 °C | – | IC50 [1, 6]: 830 nM
CCN(CCCc1ccccc1)[C@H]1CC[C@H](c2ccc(O)cc2)CC1 (as salt: salt) [Example 26, Trans-4-{4-[N-ethyl-N-(3-phenylpropyl)amino]cyclohexyl) phenol] | 192 to 194 °C | – | –
Oc1ccc([C@H]2CC[C@H](NCc3ccccc3)CC2)cc1 [Example 4b, trans-4-(4-Benzylaminocyclohexyl)phenol] | 168 to 172 °C | – | IC50 [1, 6]: 43000 nM
CCN(CCCc1ccccc1)[C@H]1CC[C@H](c2ccc(O)c(CN)c2)CC1 (as salt: HCl) [Example 31, 2-aminomethyl-4-{4-[ethyl(3-phenylpropyl)amino]cyclohexyl}phenol] | 168 to 173 °C | – | –
CC(C)(Oc1ccccc1)C(=O)N[C@H]1CC[C@H](c2ccc(O)cc2)CC1 [Example 22, Trans-N-[4-(4-Hydroxyphenyl)cyclohexyl]-2-methyl-2-phenoxy-propionamide] | 114 to 117 °C | 301000 nM | –
Oc1ccc([C@H]2CC[C@@H](NCc3ccccc3)CC2)cc1 [Example 4a, cis-4-(4-Benzylaminocyclohexyl)phenol] | 107 to 110 °C | – | IC50 [1, 6]: 70000 nM
CC(C)N(CCCc1ccccc1)[C@H]1CC[C@H](c2ccc(O)cc2)CC1 (as salt: salt) [Example 27, Trans-4-{4-[N-isopropyl-N-(3-phenylpropyl)amino]cyclohexyl}phenol] | 146 to 154 °C | – | –
Oc1ccc([C@H]2CC[C@@H](NCCc3ccc(F)cc3)CC2)cc1 [Example 5a, cis-4-{4-[2-(4-Fluorophenyl)ethylamino]cyclohexyl}phenol] | – | – | IC50 [2]: 10000 nM; IC50 [1, 5]: 1200 nM; IC50 [3]: 2700 nM
COC(=O)N(Cc1ccccc1)[C@H]1CC[C@H](c2ccc(O)cc2)CC1 [Example 19, Trans-N-benzyl-N-[4-(4-hydroxyphenyl)cyclohexyl]carbamic acid methyl ester] | 61 to 66 °C | 240000 nM | –
CN(CCOc1ccccc1)[C@H]1CC[C@H](c2ccc(O)cc2)CC1 (as salt: salt) [Example 30, 4-{4-[methyl(2-phenoxyethyl)amino]cyclohexyl}phenol] | 216 to 220 °C | – | –
C[C@@H](CCc1ccccc1)N[C@H]1CC[C@H](c2ccc(O)cc2)CC1 [Example 6d, trans-4-[4-((S)-1-Methyl-3-phenylpropylamino)cyclohexyl]phenol] | 165 to 170 °C | 70 nM | –
